Data reported in patent US20240124409A1, “GUAIANOLIDE SESQUITERPENE LACTONE DERIVATIVES AND PHARMACEUTICAL USE THEREOF” (NANJING UNIVERSITY OF CHINESE MEDICINE, priority 2021, published 2024).

Assays:
NLRP3 inflammasome = target: T1, NLRP3 inflammasome (Mus musculus, UniProt Q8R4B8); experiment: Inhibition of LPS and ATP induced NLRP3 inflammasome activation in BMDMs (IL-1β level); assay type: cell-based, C57BL/6 mice; conditions: read-out: IC50, inhibitory effect on activation of NLRP3 inflammasome
T1 construct: endogenous in cells; host or cells: primary bone marrow-derived macrophages (BMDMs) from female C57BL/6 mice, differentiated with rmM-CSF
Source text: NLRP3 is an important pattern recognition receptor, that can form the NLRP3 inflammasome through the adaptor ASC and pro-caspase-1. After activation, the NLRP3 inflammasome can mediate the activation of caspase-1, thus promoting the maturation and secretion of IL-1β. In order to determine whether the prepared guaianolide sesquiterpene lactone Compounds 1-8 can inhibit the activation of the NLRP3 inflammasome, we used LPS and ATP to induce the activation of the NLRP3 inflammasome, and observed the effects of Compounds 1-8 on the IL-1β level caused by NLRP3 inflammasome activation.
C57BL/6 mice were sacrificed by cervical dislocation, and then soaked in 75% alcohol for 5-10 min. Subsequently, two hind legs of the mice were cut off with scissors. Next, the meat was removed, and the leg bones were left, which were then washed with PBS for three times. After severing the bone at both ends, a sterile syringe filled with cold serum-free RPMI 1640 medium was used to flush the bone marrow into a 15 mL centrifuge tube. Subsequently, the bone marrow was centrifuged at 1500 rpm for 5 min, and the supernatant was discarded. The residue was resuspended with 1 mL of erythrocyte lysate, blown repeatedly, and then stood for 7 min to lyse erythrocytes. After centrifugation at 1500 rpm for 5 min, the supernatant was discarded. The residue was resuspended with the RPMI 1640 medium containing 100 ng/ml of rmM-CSF, and then transferred to a 6-well culture plate for culture.
The BMDMs were seeded on 6-well cell culture plates and then treated with 100 ng/ml ultrapure LPS for 3 h. […] Subsequently, the cells were stimulated with 5 mM ATP for 45 min. The supernatants were collected into 1.5 mL EP tubes for subsequent detection of IL-1β level.

[1] = tested on: DSS-induced UC model mice; experiment: Anti-ulcerative colitis activity, DSS mouse colitis model; assay type: in vivo, C57BL/6 mice; design: key to DAI score: DAI = (weight loss + stool + occult blood scores)/3; conditions: for MPO activity in colon tissue / Colon length: 10 days
Procedure: Except for the normal group, the other mice were free to drink 2.5% DSS for 7 days, which was then replaced to distilled water to be drunk freely for 3 days to establish the UC model. […] The mice in the normal group and model groups were administered intragastrically the same volume of the solvent 0.5% CMC-Na.
The general living conditions of the mice in each group were observed and the disease activity indexs (DAI) were evaluated. The daily specific observation indicator was weight, stool property and occult blood state of mice, and then the scores of the weight loss, stool property and occult blood state were added to determine the average value, so as to obtain the DAI score of each mouse, that is, DAI=(weight loss score+stool property score+occult blood state score)/3, to evaluate the disease activity.
Test method of occult blood: Using o-toluidine method, a little feces was picked up into a 24-well culture plate with a cotton swab, into which was first added 200 μL of the solution of o-toluidine glacial acetic acid, and then quickly added 200 μL of 3% hydrogen peroxide solution. Those turned blue-brown within 2 minutes were positive.
1 h after the last administration, blood was collected from the venous plexus of fundus oculi, stood at room temperature for 2 h, and centrifuged at 3000 rpm for 20 min. The serum was aspirated, aliquoted, and frozen at −70° C. for subsequent use. After the blood collection, the mice were sacrificed by cervical dislocation, and the abdominal cavity was opened. The colon tissues were removed 1 cm away from the anus, rinsed twice with pre-cooled PBS, and frozen at −70° C. for subsequent use.
The shortening of colon length is one of the main characteristics of DSS-induced UC model mice. After dissecting the abdominal cavity of the UC mice, the colon and distal ileum tissues were dissociated. The external morphological changes of the colon tissues were observed, the colon length was measured and recorded, and the photos were taken.
40 mg of colon tissues of the mice in each group was taken, into which was added 400 μL of pre-cooled normal saline to prepare tissue homogenates. After centrifugation at 4° C. and 1200 rpm for 5 min, the supernatants were collected. According to the method described in the kit instructions, various reagents were added sequentially, and finally the absorbance value of each well was determined at the wavelength of 460 nm of the microplate reader to calculate the MPO activity.
MPO activity (U/g wet weight)=(OD value of test tube−OD value of control tube)/11.3×sampling amount(g)

T1 sequence (Q8R4B8 whole entry): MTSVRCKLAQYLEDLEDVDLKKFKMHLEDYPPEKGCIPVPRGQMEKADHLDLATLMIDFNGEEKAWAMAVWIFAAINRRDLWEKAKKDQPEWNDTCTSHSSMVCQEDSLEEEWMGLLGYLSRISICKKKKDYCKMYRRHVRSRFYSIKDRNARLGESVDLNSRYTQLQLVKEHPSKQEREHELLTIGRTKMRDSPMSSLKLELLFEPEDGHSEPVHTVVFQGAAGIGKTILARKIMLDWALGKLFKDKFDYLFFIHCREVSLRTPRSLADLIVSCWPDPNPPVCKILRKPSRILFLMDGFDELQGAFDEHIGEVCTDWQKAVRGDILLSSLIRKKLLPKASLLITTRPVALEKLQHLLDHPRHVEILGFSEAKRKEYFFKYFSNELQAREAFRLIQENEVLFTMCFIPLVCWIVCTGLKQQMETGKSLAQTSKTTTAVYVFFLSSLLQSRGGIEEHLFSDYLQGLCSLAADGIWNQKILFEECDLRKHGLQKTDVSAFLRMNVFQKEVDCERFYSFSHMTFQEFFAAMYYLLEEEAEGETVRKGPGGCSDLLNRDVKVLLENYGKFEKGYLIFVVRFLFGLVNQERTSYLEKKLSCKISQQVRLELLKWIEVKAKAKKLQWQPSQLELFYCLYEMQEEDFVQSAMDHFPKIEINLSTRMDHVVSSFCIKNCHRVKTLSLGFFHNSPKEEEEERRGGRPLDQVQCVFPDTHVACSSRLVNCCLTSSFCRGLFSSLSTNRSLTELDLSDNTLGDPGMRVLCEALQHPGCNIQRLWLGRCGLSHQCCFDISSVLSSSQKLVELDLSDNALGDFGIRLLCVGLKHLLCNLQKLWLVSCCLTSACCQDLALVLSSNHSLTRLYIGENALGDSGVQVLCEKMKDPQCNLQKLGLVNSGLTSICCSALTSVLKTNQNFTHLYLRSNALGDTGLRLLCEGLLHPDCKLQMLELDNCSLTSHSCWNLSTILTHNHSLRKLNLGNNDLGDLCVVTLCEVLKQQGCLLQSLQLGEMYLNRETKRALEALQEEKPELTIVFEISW

Compound	IC50 (NLRP3 inflammasome) [nM]	MPO activity in colon tissue ([1]; 20 nmol/kg i.g.) [U/g tissue]	Colon length ([1]; 20 nmol/kg/d i.g.) [cm]	MPO activity in colon tissue ([1]; 40 nmol/kg i.g.) [U/g tissue]	Colon length ([1]; 40 nmol/kg/d i.g.) [cm]	DAI score ([1]; day 1, 20 nmol/kg i.g.)	DAI score ([1]; day 1, 40 nmol/kg i.g.)	DAI score ([1]; day 2, 20 nmol/kg i.g.)	DAI score ([1]; day 2, 40 nmol/kg i.g.)	DAI score ([1]; day 3, 20 nmol/kg i.g.)	DAI score ([1]; day 3, 40 nmol/kg i.g.)	DAI score ([1]; day 4, 20 nmol/kg i.g.)	DAI score ([1]; day 4, 40 nmol/kg i.g.)	DAI score ([1]; day 5, 20 nmol/kg i.g.)	DAI score ([1]; day 5, 40 nmol/kg i.g.)	DAI score ([1]; day 6, 20 nmol/kg i.g.)	DAI score ([1]; day 7, 20 nmol/kg i.g.)	DAI score ([1]; day 8, 20 nmol/kg i.g.)	DAI score ([1]; day 9, 20 nmol/kg i.g.)	DAI score ([1]; day 10, 20 nmol/kg i.g.)	further results
C=C1C(=O)O[C@@H]2[C@@H]3[C@]4(CC[C@@]3(C)O)C[C@]4(C)CC[C@@H]12 [Compound 1]	< 40	1.40 ± 0.31	6.15 ± 0.35	1.08 ± 0.12	6.78 ± 0.28	0.00 ± 0.00	0.00 ± 0.00	0.33 ± 0.14	0.33 ± 0.19	0.75 ± 0.28	0.58 ± 0.21	1.08 ± 0.37	1.00 ± 0.19	1.75 ± 0.50	1.25 ± 0.34	2.25 ± 0.44	2.50 ± 0.17	2.75 ± 0.39	1.83 ± 0.17	1.25 ± 0.16	DAI score ([1]; day 6, 40 nmol/kg i.g.): 1.67 ± 0.36; DAI score ([1]; day 7, 40 nmol/kg i.g.): 1.83 ± 0.44; DAI score ([1]; day 8, 40 nmol/kg i.g.): 1.92 ± 0.50; DAI score ([1]; day 9, 40 nmol/kg i.g.): 1.17 ± 0.32; DAI score ([1]; day 10, 40 nmol/kg i.g.): 0.50 ± 0.22
CN(C)C[C@@H]1C(=O)O[C@H]2[C@H]1CC[C@@]1(C)C[C@]13CC[C@@](C)(O)[C@H]23 [Compound 22]	40 to 80	–	–	–	–	–	–	–	–	–	–	–	–	–	–	–	–	–	–	–	–
CN(C)C[C@@H]1C(=O)O[C@H]2[C@H]1CC[C@@]1(C)C[C@]13CC[C@@](C)(O)[C@H]23 [Compound 23]	40 to 80	1.29 ± 0.11	6.51 ± 0.25	0.99 ± 0.18	7.26 ± 0.26	0.00 ± 0.00	0.00 ± 0.00	0.27 ± 0.09	0.16 ± 0.10	0.63 ± 0.14	0.54 ± 0.11	0.96 ± 0.16	1.20 ± 0.14	1.02 ± 0.23	0.61 ± 0.23	1.56 ± 0.41	2.28 ± 0.23	2.46 ± 0.26	1.31 ± 0.18	0.80 ± 0.16	DAI score ([1]; day 6, 40 nmol/kg i.g.): 1.07 ± 0.25; DAI score ([1]; day 7, 40 nmol/kg i.g.): 1.38 ± 0.25; DAI score ([1]; day 8, 40 nmol/kg i.g.): 1.57 ± 0.28; DAI score ([1]; day 9, 40 nmol/kg i.g.): 1.05 ± 0.25; DAI score ([1]; day 10, 40 nmol/kg i.g.): 0.35 ± 0.16
C=C1C(=O)O[C@@H]2[C@H]3C(C)=CC[C@@]34O[C@@]4(C)CC[C@@H]12 [arglabin, reference compound]	< 40	0.95 ± 0.18	6.50 ± 0.15	–	–	0.00 ± 0.00	–	0.36 ± 0.20	–	0.65 ± 0.20	–	1.17 ± 0.19	–	1.39 ± 0.13	–	1.62 ± 0.10	2.07 ± 0.17	2.32 ± 0.10	1.45 ± 0.13	0.92 ± 0.06	–
